Results published in patent publication US20250346600A1, “TRICYCLIC DERIVATIVES AND RELATED USES” (MOMA Therapeutics, Inc., priority 2023, published 2025).

Assays:
HCT116 cells = test: HCT116 (MSI) 7 day viability, CellTiter Glo; format: cell-based; conditions: Homo sapiens, HCT-116, 168 h, 7 days, read-out: HCT116 (MSI) Viability 7 Day Abs AC50
Method in brief: (§1)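 HCT116 seeded at 50 cells/well and HT29 at 500 cells/well onto compound plates (10-point 3-fold dilutions from 10 mM DMSO stock), incubated 7 days at 37 °C, 5% CO2.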

[1] = target: Full length WRN protein (aa 2-1432) (Homo sapiens (Human), UniProt Q14191); test: WRN ATPase ADP-Glo biochemical assay, Assay Format A (10 μM ATP); conditions: 0.25 nM WRN, 100 nM C6.18 ssDNA, 30 min preincubation, read-out: ATPase ADPGlo AC50 (uM)- Assay Format A
Full length WRN protein (aa 2-1432), sequence (Q14191 2-1432): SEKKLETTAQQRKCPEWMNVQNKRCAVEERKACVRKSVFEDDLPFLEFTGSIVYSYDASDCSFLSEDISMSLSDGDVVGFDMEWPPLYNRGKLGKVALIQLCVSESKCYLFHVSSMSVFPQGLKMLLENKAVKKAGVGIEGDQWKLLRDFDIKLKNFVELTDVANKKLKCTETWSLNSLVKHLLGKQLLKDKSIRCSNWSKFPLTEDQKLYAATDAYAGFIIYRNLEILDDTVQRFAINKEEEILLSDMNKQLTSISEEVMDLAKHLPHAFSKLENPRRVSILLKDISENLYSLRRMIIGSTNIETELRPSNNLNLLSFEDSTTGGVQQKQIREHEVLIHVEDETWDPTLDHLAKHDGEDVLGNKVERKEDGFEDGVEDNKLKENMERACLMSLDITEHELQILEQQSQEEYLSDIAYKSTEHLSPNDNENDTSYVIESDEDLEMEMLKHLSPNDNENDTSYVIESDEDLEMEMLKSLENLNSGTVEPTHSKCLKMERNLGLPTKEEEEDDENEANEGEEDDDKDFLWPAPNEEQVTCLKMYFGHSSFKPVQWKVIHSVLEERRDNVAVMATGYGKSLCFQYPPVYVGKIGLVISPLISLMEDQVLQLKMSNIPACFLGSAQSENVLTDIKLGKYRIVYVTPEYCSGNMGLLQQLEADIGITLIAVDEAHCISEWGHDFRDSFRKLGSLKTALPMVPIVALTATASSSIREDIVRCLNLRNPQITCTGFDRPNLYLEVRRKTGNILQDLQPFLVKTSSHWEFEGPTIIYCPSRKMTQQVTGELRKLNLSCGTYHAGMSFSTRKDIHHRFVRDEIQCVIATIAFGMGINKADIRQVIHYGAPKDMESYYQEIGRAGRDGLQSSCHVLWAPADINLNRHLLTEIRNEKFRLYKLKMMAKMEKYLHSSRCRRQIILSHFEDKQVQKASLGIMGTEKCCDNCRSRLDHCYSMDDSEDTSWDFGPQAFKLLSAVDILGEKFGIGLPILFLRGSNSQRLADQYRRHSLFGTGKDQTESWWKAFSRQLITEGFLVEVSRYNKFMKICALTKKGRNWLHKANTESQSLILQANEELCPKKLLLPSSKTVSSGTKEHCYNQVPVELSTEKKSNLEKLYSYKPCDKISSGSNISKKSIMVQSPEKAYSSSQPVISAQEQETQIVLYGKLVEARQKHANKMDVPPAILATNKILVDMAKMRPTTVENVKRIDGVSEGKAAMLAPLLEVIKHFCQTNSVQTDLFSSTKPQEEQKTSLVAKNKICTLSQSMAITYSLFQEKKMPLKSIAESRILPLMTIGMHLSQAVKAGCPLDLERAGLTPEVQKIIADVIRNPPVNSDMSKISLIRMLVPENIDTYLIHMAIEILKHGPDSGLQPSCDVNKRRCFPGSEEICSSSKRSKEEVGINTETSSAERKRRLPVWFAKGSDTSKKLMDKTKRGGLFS
Excerpt: Full length Werner helicase construct (Uniprot: Q14191) with an N-terminal FLAG-AVI-TEV tag was expressed using the Sf9 cell/baculovirus expression system. The harvested cell pellet was resuspended and lysed in a glass homogenizer. After insoluble material was removed by centrifugation, the helicase protein was first purified with FLAG affinity resin and then further purified through a size-exclusion chromatography column. Peak fractions containing the purified protein were concentrated, split into aliquots and frozen in liquid nitrogen to be thawed before use. Biochemical Assay Description (ATPase activity)-Assay Format A WRN activity was measured using an ATPase assay. Full length WRN protein (aa 2-1432) (production described separately) was used for the biochemical activity assays. The 39-mer ssDNA “C6.18” [NT] was purchased from IDT and used as a substrate. Quantification of ATP hydrolysis was evaluated using the ADP-Glo assay kit (Promega, Madison, WI). An enzyme titration time-course was performed to determine the optimal assay conditions. […] To evaluate the inhibitory effects of the compounds, 11-point 3-fold serial dilutions were prepared in DMSO. 50 nL of each concentration in duplicate was preincubated for 30 minutes in a 384-well microplate (Greiner #784075) with 5 μL of 0.5 nM WRN in assay buffer. The reaction was initiated by adding 5 μL of 200 nM C6.18 DNA with 20 μM ATP and was allowed to proceed for 30 minutes at room temperature. The reaction was stopped with 10 μL ADP-Glo reagent for 1 hour to remove unreacted ATP. Lastly, 20 μL ATP detection reagent was added and incubated for 1 hour to generate the luminescence signal. Control wells included “high controls” with no inhibition (DMSO, no compound) and “low controls” with maximum inhibition (no WRN). Luminescence was recorded on a PHERAstar (BMG Labtech, Ortenberg, Germany). Data was fit using the “Smart Fit” method within the Genedata Screener Software (Basel, Switzerland) to obtain IC50 values using four-parameter fits. Reported IC50s are the geometric means of at least two independent trials.

HT29 cells = test: HT29 (MSS) 7 day viability, CellTiter Glo; format: cell-based; conditions: Homo sapiens, HT-29, 168 h, 7 days, read-out: HT29 (MSS) Viability 7 Day CTGAbs AC50
Method in brief: as §1

| SMILES | AC50 (HCT116 cells) | AC50 [1] | AC50 (HT29 cells) |
| --- | --- | --- | --- |
| C=CC(=O)N1CCc2nn(-c3ccc(C(C)C)cc3)c3c2C(C1)N(C(=O)c1ccc2c(cnn2C(F)(F)F)c1)CC3 (stereo not drawn) [Compound 11, 1-(2-(4-isopropylphenyl)-5-(1-(trifluoromethyl)-1H-indazole-5-carbonyl)-2,3,4,5,5a,6,8,9-octahydro-7H-1,2,5,7-tetraazabenzo[cd]azulen-7-yl)prop-2-en-1-one] | > 1000 nM | > 0.055 µM | > 3000 nM |
| CC(C)c1ccc(-n2nc3c4c2CCN(C(=O)c2ccc(Br)c5[nH]cnc25)C4CN(C(=O)C2=CCC2)CC3)cc1 (stereo not drawn) [Compound 16, (7-bromo-1H-benzo[d]imidazol-4-yl)(7-(cyclobut-1-ene-1-carbonyl)-2-(4-isopropylphenyl)-2,3,4,5a,6,7,8,9-octahydro-5H-1,2,5,7-tetraazabenzo[cd]azulen-5-yl)methanone] | > 1000 nM | > 0.055 µM | > 3000 nM |
| C=CC(=O)N1Cc2nn(-c3ccc(C(C)C)cc3C)c3c2C(C1)N(C(=O)c1ccc(Br)c(O)c1)CC3 (stereo not drawn) [Compound 35, 1-(6-(4-bromo-3-hydroxybenzoyl)-1-(4-isopropyl-2-methylphenyl)-1,5,5a,6,7,8-hexahydropyrazolo[3,4,5-de][1,7]naphthyridin-4(3H)-yl)prop-2-en-1-one] | 100 to 250 nM | 0.005 to 0.015 µM | > 3000 nM |
| C=CC(=O)N1CCOCc2nn(-c3ccc(C(C)C)cc3C)c3c2C(C1)N(C(=O)c1ccc(Br)c(O)c1)CC3 (stereo not drawn) [Compound 36, 1-(5-(4-bromo-3-hydroxybenzoyl)-2-(4-isopropyl-2-methylphenyl)-2,4,5,5a,6,8,9,11-octahydro-10-oxa-1,2,5,7-tetraazacyclonona[cd]inden-7(3H)-yl)prop-2-en-1-one] | 500 to 1000 nM | 0.015 to 0.055 µM | > 3000 nM |
| C=CC(=O)N1CCn2nc(-c3ccc(C(C)C)cc3)c3c2C(C1)N(C(=O)c1ccc(Br)c(O)c1)CC3 (stereo not drawn) [Compound 37, 1-(5-(4-bromo-3-hydroxybenzoyl)-2-(4-isopropylphenyl)-4,5,5a,6,8,9-hexahydro-1,5,7,9a-tetraazabenzo[cd]azulen-7(3H)-yl)prop-2-en-1-one] | > 1000 nM | 0.015 to 0.055 µM | > 3000 nM |
| C=CC(=O)N1CCOc2nn(-c3ccc(C(C)C)cc3)c3c2C(C1)N(C(=O)c1ccc(Br)c(O)c1)CC3 (stereo not drawn) [Compound 48, 1-(5-(4-bromo-3-hydroxybenzoyl)-2-(4-isopropylphenyl)-2,3,4,5,5a,6,8,9-octahydro-7H-10-oxa-1,2,5,7-tetraazacycloocta[cd]inden-7-yl)prop-2-en-1-one] | 100 to 250 nM | 0.0015 to 0.005 µM | > 3000 nM |
| CN(C)CC=CC(=O)N1CCOc2nn(-c3ccc(C4CCC4)cc3)c3c2C(C1)N(C(=O)c1ccc(Br)c2[nH]cnc12)CC3 (stereo not drawn) [Compound 51, 1-(5-(7-bromo-1H-benzo[d]imidazole-4-carbonyl)-2-(4-cyclobutylphenyl)-2,3,4,5,5a,6,8,9-octahydro-7H-10-oxa-1,2,5,7-tetraazacycloocta[cd]inden-7-yl)-4-(dimethylamino)but-2-en-1-one] | > 1000 nM | 0.015 to 0.055 µM | > 3000 nM |
| C=CC(=O)N1CCN(C)c2nn(-c3ccc(C(C)C)cc3)c3c2C(C1)N(C(=O)c1ccc(Br)c2[nH]cnc12)CC3 (stereo not drawn) [Compound 56, 1-(5-(7-bromo-1H-benzo[d]imidazole-4-carbonyl)-2-(4-isopropylphenyl)-10-methyl-2,4,5,5a,6,8,9,10-octahydro-1,2,5,7,10-pentaazacycloocta[cd]inden-7(3H)-yl)prop-2-en-1-one] | 250 to 500 nM | 0.015 to 0.055 µM | > 3000 nM |
| C=CC(=O)N1CCc2nn(-c3ccc(C4CC4)cc3)c3c2C(C1)N(C(=O)c1ccc(-n2cccn2)nc1)CC3 (stereo not drawn) [Compound 98, 1-(5-(6-(1H-pyrazol-1-yl)nicotinoyl)-2-(4-cyclopropylphenyl)-2,3,4,5,5a,6,8,9-octahydro-7H-1,2,5,7-tetraazabenzo[cd]azulen-7-yl)prop-2-en-1-one] | 250 to 500 nM | 0.015 to 0.055 µM | > 3000 nM |
| C=CC(=O)N1CCc2nn(-c3ccc(C4CC4)cc3)c3c2C(C1)N(C(=O)c1ccc(Br)nn1)CC3 (stereo not drawn) [Compound 108, 1-(5-(6-bromopyridazine-3-carbonyl)-2-(4-cyclopropylphenyl)-2,3,4,5,5a,6,8,9-octahydro-7H-1,2,5,7-tetraazabenzo[cd]azulen-7-yl)prop-2-en-1-one] |  | 0.005 to 0.015 µM |  |
| C=CC(=O)N1CCc2nn(-c3ccc(C4CC4)cc3)c3c2C(C1)N(C(=O)c1cnc2c(c1)c(C(F)(F)F)nn2C)CC3 (stereo not drawn) [Compound 111, 1-(2-(4-cyclopropylphenyl)-5-(1-methyl-3-(trifluoromethyl)-1H-pyrazolo[3,4-b]pyridine-5-carbonyl)-2,3,4,5,5a,6,8,9-octahydro-7H-1,2,5,7-tetraazabenzo[cd]azulen-7-yl)prop-2-en-1-one] |  | 0.015 to 0.055 µM |  |
| C=CC(=O)N1CCc2nn(-c3ccc(C4CC4)cc3)c3c2C(C1)N(C(=O)c1cnc(Br)cc1C)CC3 (stereo not drawn) [Compound 113, 1-(5-(6-bromo-4-methylnicotinoyl)-2-(4-cyclopropylphenyl)-2,3,4,5,5a,6,8,9-octahydro-7H-1,2,5,7-tetraazabenzo[cd]azulen-7-yl)prop-2-en-1-one] |  | 0.005 to 0.015 µM |  |
| C=CC(=O)N1CCc2nn(-c3ccc(C4CC4)cc3)c3c2C(C1)N(C(=O)c1ccc(C(F)(F)F)nn1)CC3 (stereo not drawn) [Compound 115, 1-(2-(4-cyclopropylphenyl)-5-(6-(trifluoromethyl)pyridazine-3-carbonyl)-2,3,4,5,5a,6,8,9-octahydro-7H-1,2,5,7-tetraazabenzo[cd]azulen-7-yl)prop-2-en-1-one] | 500 to 1000 nM | 0.015 to 0.055 µM | > 3000 nM |
| C=CC(=O)N1CCc2nn(-c3ccc(C4CC4)cc3)c3c2C(C1)N(C(=O)c1cc2n(n1)CCN(C)S2(=O)=O)CC3 (stereo not drawn) [Compound 116, 1-(2-(4-cyclopropylphenyl)-5-(2-methyl-1,1-dioxido-3,4-dihydro-2H-pyrazolo[1,5-e][1,2,5]thiadiazine-7-carbonyl)-2,3,4,5,5a,6,8,9-octahydro-7H-1,2,5,7-tetraazabenzo[cd]azulen-7-yl)prop-2-en-1-one] | > 1000 nM | > 0.055 µM | > 3000 nM |
| C=CC(=O)N1CCc2nn(-c3ccc(C4CC4)cc3)c3c2C(C1)N(C(=O)C12CC(C(F)(F)F)(C1)C2)CC3 (stereo not drawn) [Compound 121, 1-(2-(4-cyclopropylphenyl)-5-(3-(trifluoromethyl)bicyclo [1.1.1]pentane-1-carbonyl)-2,3,4,5,5a,6,8,9-octahydro-7H-1,2,5,7-tetraazabenzo[cd]azulen-7-yl)prop-2-en-1-one] |  | 0.015 to 0.055 µM |  |
| C=CC(=O)N1CCc2nn(-c3ccc(C4CC4)cc3)c3c2C(C1)N(C(=O)c1cnc2[nH]c(C(F)(F)F)nc2c1)CC3 (stereo not drawn) [Compound 124, 1-(2-(4-cyclopropylphenyl)-5-(2-(trifluoromethyl)-3H-imidazo[4,5-b]pyridine-6-carbonyl)-2,3,4,5,5a,6,8,9-octahydro-7H-1,2,5,7-tetraazabenzo[cd]azulen-7-yl)prop-2-en-1-one] |  | 0.015 to 0.055 µM |  |
| C=CC(=O)N1CCc2nn(-c3ccc(C4CC4)cc3)c3c2C(C1)N(C(=O)c1csc(S(N)(=O)=O)c1)CC3 (stereo not drawn) [Compound 125, 4-(7-acryloyl-2-(4-cyclopropylphenyl)-3,4,5,5a,6,7,8,9-octahydro-2H-1,2,5,7-tetraazabenzo[cd]azulene-5-carbonyl)thiophene-2-sulfonamide] |  | > 0.055 µM |  |
